Key:
[1] = Human microsome stability assay; assay type: in vitro ADME; conditions: human liver microsomes, 1 μM test compound, 0.5 mg/mL microsomal protein, 37° C., pH 7.4, 0-30 minutes
Method in brief: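 Compound (1 μM) incubated at 37 °C with human liver microsomes (0.5 mg/mL protein) in 100 mM potassium phosphate, pH 7.4, after 10 min preincubation; started with NADPH regenerating system. Sampled at 0–30 min, quenched with cold ACN; remaining parent quantified by LC-MS/MS, with no-NADPH controls.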

[2] = test system: HBsAg in HBV-infected PHH; assay: Cryopreserved primary human hepatocytes (PHH) HBV infection assay, extracellular HBsAg (CLIA); assay type: cell-based; conditions: Hepatitis B virus, Hepatocyte, 216 h, read-out: HBsAg IC50, Cryopreserved PHH infected with HBV, 9 days post-compound treatment, extracellular HBsAg
Procedure: This assay is used to confirm the anti-HBV effect of the compounds in HBV PHH infection assay. Cryopreserved PHH (BioreclamationIVT, Lot YJM) was thawed at 37° C. and gently transferred into pre-warmed InVitroGRO HT medium (BioreclamationIVT, Cat. S03317). The mixture was centrifuged at 70 relative centrifugal force (RCF) for 3 minutes at RT, and the supernatant was discarded. Pre-warmed InVitroGRO CP medium (BioreclamationIVT, Cat #S03316) was added to the cell pellet to gently re-suspend cells. The cells were seeded at the density of 5.8×10^4 cells per well to collagen I coated 96-well plate (Gibco, Cat. A1142803) with the InVitroGRO CP medium. All plates were incubated at 37° C. with 5% CO2 and 85% humidity.
At 20 hours after plating, the medium was changed to PHH culture medium (Dulbecco's Modified Eagle Medium (DMEM)/F12 (1:1) (Gibco, Cat. 11320-033), 10% fetal bovine semm (Gibco Cat. 10099141), 100 U/mL penicillin, 100 μg/mL streptomycin (Gibco, Cat. 151401-122), […] (Invitrogen Cat. PHG0311L), 20 ng/mL dexamethasone (Sigma, Cat. D4902) and 250 ng/mL human recombinant insulin (Gibco, Cat. 12585-014)). And the cells were incubated at 37° C. with 5% CO2 and 85% humidity for 4 hours. The medium was then changed to pre-warmed PHH culture medium containing 4% polyethylene glycol (PEG) MW8000 (Sigma, Cat. P1458-50 ML) and 1% DMSO (Sigma, Cat. D2650). 5.8×10^6 genomic equivalents of HBV were added into the medium.
At 24 hours post-infection, the cells were gently washed with PBS and refreshed with PHH culture medium supplemented with 1% DMSO, and 0.25 mg/mL Matrix gel (Corning, Cat. 356237) at 200 μL per well. All plates were immediately placed in at 37° C. CO2 incubator.
24 hours later, serial dilutions of compounds made with DMSO were further diluted with the same culture medium (PHH culture medium supplemented with 1% DMSO and 0.25 mg/mL Matrix gel as described above) before they were added to the cells to reach desired final compound concentrations and 1% DMSO concentration. The medium containing the compounds were refreshed every three days.
At 9 days post-compound treatment, extracellular HBsAg level were measured with Chemiluminescence Immuno Assay (CLIA) kit (Autobio, HBsAg Quantitative CLIA). Extracellular HBV DNA was extracted by MagNA Pure 96 system (Roche) and then determined by quantitative PCR with the following primers and probe: […]
HBsAg IC50 and HBV DNA IC50 values were derived from the dose-response curve using 4 parameter logistic curve fit method. The compounds of formula (I) have HBsAg IC50<20 μM, particularly <1 μM; and HBV DNA IC50<50 μM.

[3] = test system: HBeAg (surrogate marker for cccDNA) in HepDES19 cells; assay: Engineered HepDES19 primary screen assay (HBeAg ELISA); assay type: cell-based, HBV; conditions: Hepatitis B virus, HepDES19, 120 h, read-out: IC50 (HBeAg level, HepDES19 primary screen assay), HepDES19 cells, 5 days compound incubation, HBeAg ELISA
Method in brief: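 HepDES19 cells were induced by Tet withdrawal for 8 days, then treated with half-log compound dilutions (1% DMSO final) for 5 days at 37 °C. HBeAg was measured by ELISA as the cccDNA surrogate, viability by CCK-8, and IC50 from a 4-parameter logistic fit.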

| SMILES | Clearance of Human microsome [1] [mL/min/kg] | IC50 [2] [nM] | IC50 [3] [nM] |
| --- | --- | --- | --- |
| Cc1cc(-c2cc(=O)c3cccc(Cl)c3o2)c(OCCC(=O)O)cc1OC(F)(F)F [Example A017, 3-[2-(8-chloro-4-oxo-chromen-2-yl)-4-methyl-5-(trifluoromethoxy)phenoxy]propanoic acid] | 9.98 | 1840 | 3170 |
| O=C(O)CCOc1cc(OC(F)(F)F)ccc1-c1cc(=O)c2cccc(Br)c2o1 [Example A022, 3-[2-(8-bromo-4-oxo-chromen-2-yl)-5-(trifluoromethoxy)phenoxy]propanoic acid] | 6.15 | 754 | 983 |
| Cc1ccc(-c2cc(=O)c3cccc(Br)c3o2)c(OCCC(=O)O)c1 [Example A024, 3-[2-(8-bromo-4-oxo-chromen-2-yl)-5-methyl-phenoxy]propanoic acid] | 6.61 | 4090 | 570 |
| O=C(O)CCOc1cc(Br)cnc1-c1cc(=O)c2cccc(Cl)c2o1 [Example A026, 3-[[5-bromo-2-(8-chloro-4-oxo-chromen-2-yl)-3-pyridyl]oxy]propanoic acid] | 6.15 | 2970 | 2970 |
| CC(CC(=O)O)Oc1cc(C(F)(F)F)ccc1-c1cc(=O)c2cccc(Cl)c2o1 (stereo not drawn) [Example A039, 3-[2-(8-chloro-4-oxo-chromen-2-yl)-5-(trifluoromethyl)phenoxy]butanoic acid] | 6.37 | 7080 | 142 |
| CC(CC(=O)O)OC(=O)CC(C)Oc1cc(C(F)(F)F)ccc1-c1cc(=O)c2cccc(Cl)c2o1 (stereo not drawn) [Example A040, 3-[3-[2-(8-chloro-4-oxo-chromen-2-yl)-5-(trifluoromethyl)phenoxy]butanoyloxy]butanoic acid] | 6.15 | 7940 | 525 |
| COc1cc(-c2cc(=O)c3cccc(Cl)c3o2)c(OCCC(=O)O)cc1C(F)(F)F [Example A043, 3-[2-(8-chloro-4-oxo-chromen-2-yl)-4-methoxy-5-(trifluoromethyl)phenoxy]propanoic acid] | 6.15 | 6690 | 2250 |
| Cc1cc(-c2cc(=O)c3cccc(Cl)c3o2)c(OCCC(=O)O)cc1C(F)(F)F [Example A044, 3-[2-(8-chloro-4-oxo-chromen-2-yl)-4-methyl-5-(trifluoromethyl)phenoxy]propanoic acid] | 6.15 | 1770 | 2520 |
| Cc1ccc(-c2cc(=O)c3cccc(Cl)c3o2)c(OCC(=O)O)c1 [Example A049, 2-[2-(8-chloro-4-oxo-chromen-2-yl)-5-methyl-phenoxy]acetic acid] | 6.15 | 1260 | 87.2 |
| O=C(O)CCCOc1cc(C(F)(F)F)ccc1-c1cc(=O)c2cccc(Cl)c2o1 [Example A052, 4-[2-(8-chloro-4-oxo-chromen-2-yl)-5-(trifluoromethyl)phenoxy]butanoic acid] | 8.01 | 6910 | 213 |
| O=C(O)CCCOc1cc(OC(F)(F)F)ccc1-c1cc(=O)c2cccc(Cl)c2o1 [Example A053, 4-[2-(8-chloro-4-oxo-chromen-2-yl)-5-(trifluoromethoxy)phenoxy]butanoic acid] | 7.66 | 3570 | 491 |
| Cc1cc(-c2cc(=O)c3cccc(Cl)c3o2)c(OCCCC(=O)O)cc1Br [Example A054, 4-[5-bromo-2-(8-chloro-4-oxo-chromen-2-yl)-4-methyl-phenoxy]butanoic acid] | 6.15 | 4210 | 1470 |
| COc1cc(OCCCC(=O)O)c(-c2cc(=O)c3cccc(Cl)c3o2)cc1OC [Example A056, 4-[2-(8-chloro-4-oxo-chromen-2-yl)-4,5-dimethoxy-phenoxy]butanoic acid] | 6.15 | 9210 | 3110 |
| Cc1cc(-c2cc(=O)c3cccc(Cl)c3o2)c(OCCCC(=O)O)cc1Cl [Example A057, 4-[5-chloro-2-(8-chloro-4-oxo-chromen-2-yl)-4-methyl-phenoxy]butanoic acid] | 6.15 | 9760 | 1330 |
| O=C(O)[C@H]1CCN(C(=O)COc2cc(C(F)(F)F)ccc2-c2cc(=O)c3cccc(Cl)c3o2)C1 [Example A083, (3S)-1-[2-[2-(8-chloro-4-oxo-chromen-2-yl)-5-(trifluoromethyl)phenoxy]acetyl]pyrrolidine-3-carboxylic acid] | 6.15 | 9740 | 5570 |
| O=C(CCOc1cc(C(F)(F)F)ccc1-c1cc(=O)c2cccc(Cl)c2o1)NS(=O)(=O)C1CC1 [Example A084, 3-[2-(8-chloro-4-oxo-chromen-2-yl)-5-(trifluoromethyl)phenoxy]-N-cyclopropylsulfonyl-propanamide] | 7.5 | 1020 | 1450 |
| O=C(O)[C@H](COc1cc(C(F)(F)F)ccc1-c1cc(=O)c2cccc(Cl)c2o1)NS(=O)(=O)C1CC1 [Example A096, (2S)-3-[2-(8-chloro-4-oxo-chromen-2-yl)-5-(trifluoromethyl)phenoxy]-2-(cyclopropylsulfonylamino)propanoic acid] | 6.15 | 1240 | 114 |
| Cc1ccc(S(=O)(=O)N[C@@H](COc2cc(C(F)(F)F)ccc2-c2cc(=O)c3cccc(Cl)c3o2)C(=O)O)cc1 [Example A097, (2S)-3-[2-(8-chloro-4-oxo-chromen-2-yl)-5-(trifluoromethyl)phenoxy]-2-(p-tolylsulfonylamino)propanoic acid] | 8.78 | 4030 | 983 |
| CCNS(=O)(=O)N[C@@H](COc1cc(C(F)(F)F)ccc1-c1cc(=O)c2cccc(Cl)c2o1)C(=O)O [Example A099, (2S)-3-[2-(8-chloro-4-oxo-chromen-2-yl)-5-(trifluoromethyl)phenoxy]-2-(ethylsulfamoylamino)propanoic acid] | 9.53 | 140 | 66.3 |
| O=c1cc(-c2ccccc2O[C@H]2C[C@@H](C(=O)O)C2)oc2c(Cl)cccc12 [Example B002-A, cis-3-[2-(8-chloro-4-oxo-chromen-2-yl)phenoxy]cyclobutanecarboxylic acid] | 6.15 | 2020 | 162 |
| O=c1cc(-c2ccccc2O[C@H]2C[C@H](C(=O)O)C2)oc2c(Cl)cccc12 [Example B002-B, trans-3-[2-(8-chloro-4-oxo-chromen-2-yl)phenoxy]cyclobutanecarboxylic acid] | 6.15 | 3350 | 112 |
| O=C(O)C1CC(Oc2cc(C(F)(F)F)ccc2-c2cc(=O)c3cccc(Cl)c3o2)C1 (stereo not drawn) [Example B003, 3-[2-(8-chloro-4-oxo-chromen-2-yl)-5-(trifluoromethyl)phenoxy]cyclobutanecarboxylic acid] | 6.15 | 4370 | 468 |
